Key:
[1] = test system: on-target and off-target genomic loci (NF2, NF1, MED12 and other top-ranking genes); assay: Deep sequencing of on-target and off-target loci for allele modification in A375 cells; format: cell-based, human; settings: 7 and 14 days post-transduction
Text: Applicants validated top ranking genes from the GeCKO screen individually using 3-5 sgRNAs (FIGS. 28C-E, 38, 39). […] Applicants compared sgRNA and shRNA-mediated protein depletion and PLX resistance using Western blot (FIG. 28D) and cell growth assays (FIG. 28E). […] Additionally, sgRNAs targeting NF1, MED12, CUL3, TADA1, and TADA2B led to a decrease in protein expression and increased resistance to PLX (FIGS. 38, 39).
Screening timeline considerations: After infection, cells are selected with puromycin. For most cell types, 0.5-2 ug/ml puromycin works well, although the minimum dose that kills all cells without any viral transduction should be determined in advance and the minimum concentration should be used for selection. […] As shown in the deep sequencing of the individual target (array) validations from the PLX resistance screen gene hits, genome modification increases over time. For most targets, genome modification was nearly complete after only 7 days.
Sequencing data analysis and indel detection: Off target loci in the human genome were identified for individual spacers using the CRISPR design tool (available at the website tools.genome-engineering.org). On-target and off-target loci were PCR amplified using Herculase II Fusion polymerase (Agilent), normalized, and pooled in equimolar proportions. Pooled libraries were denatured, diluted to a 14 pM concentration and sequenced using the MiSeq Personal Sequencer (Illumina). Sequencing data was demultiplexed using paired barcodes, aligned to reference amplicons, and analyzed for indels as described previously. Indel length analysis was performed by mapping the distance between multiple short reference sequences in individual reads.

[2] = test system: human EMX1 locus; assay: Surveyor nuclease assay for genome modification at the human EMX1 locus in HEK 293FT cells; format: cell-based; settings: co-expression with EMX1-targeting chimeric crRNA, n=3
Protocol: Mouse neuro2A (N2A) cell line (ATCC) was maintained with DMEM supplemented with 5% fetal bovine serum (HyClone), 2 mM GlutaMAX (Life Technologies), 100 U/mL penicillin, and 100 μg/mL streptomycin at 37° C. with 5% CO2.
Cells were transfected using Lipofectamine 2000 (Life Technologies) following the manufacturer's recommended protocol. For each well of a 24-well plate a total of 800 ng of plasmids were used.
Genomic DNA was extracted using the QuickExtract DNA extraction kit (Epicentre) following the manufacturer's protocol. […] Extracted genomic DNA was immediately processed or stored at −20° C.
The genomic region surrounding a CRISPR target site for each gene was PCR amplified, and products were purified using QiaQuick Spin Column (Qiagen) following manufacturer's protocol. […] After re-annealing, products were treated with Surveyor nuclease and Surveyor enhancer S (Transgenomics) following the manufacturer's recommended protocol, and analyzed on 4-20% Novex TBE poly-acrylamide gels (Life Technologies). […] Quantification was based on relative band intensities, as a measure of the fraction of cleaved DNA.

Substance	off-target modification over time [1]	other results
NF2_sg4: sgRNA 20 bp sequence GTACTGCAGTCCAAAGAACC (expressed or natural sequence)	off-target modification also increases with time	
SpCas9n: SpCas9 nickase with aspartate-to-alanine substitution (D10A) in the RuvC I catalytic domain		indels at the EMX1 protospacer target (Surveyor assay) [2]: does not generate indels
MED12_sg2: sgRNA 20 bp sequence CGTCAGCTTCAATCCTGCCA (expressed or natural sequence)	off-target modification also increases with time	
NF2_sg5: sgRNA 20 bp sequence CACAGTGGCCTGGCTCAAAA (expressed or natural sequence)		on-target genome modification over time [1]: lower modification that increased by 14 days post-transduction

Source: patent US10781444B2, “Functional genomics using CRISPR-Cas systems, compositions, methods, screens and applications thereof” (THE BROAD INSTITUTE, INC., priority 2013, dated 2020)
